How the values were obtained:
PCSK9/LDLR complex = assay: PCSK9/LDLR protein complementation assay (PCA) in transfected HEK293 cells; format: cell-based, human
Procedure: In one of the embodiments of the invention, the cell-based assay consists of transfected cDNAs encoding full-length PCSK9 and LDL receptor, each sequence linked in-frame to rationally designed fragments of a variant of green fluorescent protein. These two plasmid constructs were co-expressed in human HEK cells plated in 384-well poly-lysine coated plates. After 24-48 hours of incubation, drugs (or vehicle controls) were added to the media, and the existence and localization of PCSK9/LDL receptor complexes was quantified on an Opera automated confocal fluorescence microscopy platform (Perkin Elmer). Images were subjected to automated image analysis, and results quantified and subjected to statistical analysis.
HEK 293T cells were seeded in normal growth media containing DMEM and 10% FBS at 1.5×10^4 in PDL-coated 96-well plates 24 hours prior to transfection. Cells were transfected with 50 ng of each construct DNA per well with Fugene 6, using conditions recommended by the manufacturer. Cells were allowed to express the construct pairs for 24- or 48 h, then the cells were simultaneously fixed and stained with either a 1:300 dilution of Hoescht 33342 (Molecular Probes, Eugene, Oreg.) or a 1:1000 dilution of Draq5 (Biostatus, Shepshed, Leicestershire, U.K.) in 4% formaldehyde for 15 minutes at room temperature. The cells were washed to remove fixative, and overlaid with a small volume of Hank's Buffered Salt Solution. Images were acquired on a Discovery-1 (Molecular Devices) epifluorescence microscope using the 20× objective, and DAPI and FITC filter sets. (with excitation at 350 and 488 nm wave lengths) or on an Opera (Perkin Elmer) confocal microscope using the 20× water objective with the following excitation and emission settings: Ex 488 nm/Em 535 nm (YFP) and Ex 635 nm/Em 640 nm (Draq5).
To test for in vitro PCSK9 function and activity, we developed a protein complementation assay (PCA) with PCSK9-IFP2 and the LDL-IFP1 receptor (PCSK9/LDLR). Expression of wild type PCSK9-IFP2 in transfected HEK293 cells was confirmed by Western blot using an antibody against YFP (FIG. 2). Cotranfection of HEK cells with increasing ratios of PCSK9-IFP2 and LDLR-IFP1 DNA constructs results in increased PCA signal (FIG. 3) but not when each construct is expressed alone. The intracellular localization of the wild-type PCSK9-IFP2/LDLR-IFP1 PCA interaction is similar to the known localization of wild type PCSK9 in the endoplasmic reticulum (ER) and post-ER compartments in various cell types (20, 21). The PCA signal for the PCSK9-IFP2/LDLR-IFP1 pair appears to be localized to multiple intracellular trafficking sites including the ER, endosomes and the cell surface.
In order to test the viability of using the PCSK9-IFP2/LDLR-IFP1 PCA as a drug discovery tool, we tested a drug plate containing 50 known drugs at 3 doses in the assay (Table 10) as well as several protein kinase inhibitors (representative compounds are depicted in Table 11). […] We observed the following effects of known compounds on the PCSK9/LDLR complex:
A collection of small molecular weight compounds was screened. […] To expand on this observation, we characterized the effects of a larger panel of kinase inhibitors on the PCSK9/LDLr complex. 47 compounds representing a broad range of known receptor tyrosine and serine-threonine kinase inhibitors were assessed (table 2). A subset was identified that had inhibitory effects on the PCSK9/LDLr complex (degree of assay inhibition relative to control is indicated by “% control”, Table 2).

HepG2 cells = assay: LDL uptake in HepG2 cells (human LDL conjugated to DyLight 549); format: cell-based; conditions: for x-fold increase (hepatic LDL uptake): HepG2
Text: The assay uses human LDL conjugated to DyLight™ 549 as a fluorescent probe for detection of LDL uptake into HepG2 cells.
We assessED whether compounds that inhibit the PCSK9/LDLr assay would have activity on LDL uptake and metabolism in a relevant cell type. PCSK9 is thought to be a negative regulator of LDLr. Thus, we predicted that compounds inhibiting the PCSK9 PCA signal would increase LDL receptor expression and LDL uptake. An assay using human LDL conjugated to DyLight™ 549 as a fluorescent probe for detection of LDL uptake into cultured human hepatocytes. A separate assay, using an LDL receptor-specific polyclonal antibody and a DyLight™ 488-conjugated secondary antibody, was also performed to localize LDL receptors
Quantitation of the increased LDL uptake of these and other kinase inhibitors targeting Akt, mTOR, p38, GSK3 and VEGF is shown in Table 4.

CC[n+]1c(/C=C/N(C)c2ccccc2)n(-c2ccccc2)c2ccc(-c3nc4ccccc4s3)cc21 [Akt Inhibitor IV, 5-(2-Benzothiazolyl)-3-ethyl-2-[2-(methylphenylamino)ethenyl]-1-phenyl-1H-benzimidazolium iodide]
% Control (PCSK9/LDLr PCA) (PCSK9/LDLR complex; dose 1 μM): 65% | % Control (PCSK9/LDLr PCA) (PCSK9/LDLR complex; dose 3 μM): 40% | % Control (PCSK9/LDLr PCA) (PCSK9/LDLR complex; dose 10 μM): 56%

CCN(CC)CCCCN1c2ccccc2Oc2ccc(Cl)cc21.Cl [Akt Inhibitor X, 10-(4′-(N-diethylamino)butyl)-2-chlorophenoxazine, HCl]
x-fold increase (LDL uptake in Hepg2 cells) (HepG2 cells; dose 1 μM): 1.4 x-fold | x-fold increase (hepatic LDL uptake) (HepG2 cells; dose 1 µM): 1.4 x-fold | x-fold increase (LDL uptake in Hepg2 cells) (HepG2 cells; dose 3 μM): 1.7 x-fold | x-fold increase (hepatic LDL uptake) (HepG2 cells; dose 3 µM): 1.7 x-fold

CN(C)CCC=C1c2ccccc2CCc2ccccc21 [Amitryptyline]
% Control (PCSK9/LDLr PCA) (PCSK9/LDLR complex; dose 100 μM): 48%

C=C1CC[C@@H]2[C@](C)(CO)CCC[C@@]2(C)[C@@H]1CCC1=CCOC1=O [Andrograpanin]
% Control (PCSK9/LDLr PCA) (PCSK9/LDLR complex; dose 100 μM): 40%

C=C1CC[C@@H]2[C@](C)(CO)[C@H](O)CC[C@@]2(C)[C@@H]1C/C=C1/C(=O)OC[C@H]1O [Andrographolide]
% Control (PCSK9/LDLr PCA) (PCSK9/LDLR complex; dose 100 μM): 43%

CN(C)CCCN1c2ccccc2CCc2ccc(Cl)cc21 [Clomipramine]
% Control (PCSK9/LDLr PCA) (PCSK9/LDLR complex; dose 50 μM): 46%

C=C1[C@@H](C)[C@H]2[C@H](Cc3ccccc3)NC(=O)[C@]23OC(=O)/C=C/[C@H](O)CCC[C@@H](C)C/C=C/[C@H]3[C@@H]1O [Cytochalasin B]
% Control (PCSK9/LDLr PCA) (PCSK9/LDLR complex; dose 2 μM): 53%

COc1cc2ncnc(Nc3ccc(F)c(Cl)c3)c2cc1OCCCN1CCOCC1 [Gefitinib]
% Control (PCSK9/LDLr PCA) (PCSK9/LDLR complex; dose 100 μM): 53%

CN(C)CCCN1c2ccccc2CCc2ccccc21 [Imipramine]
% Control (PCSK9/LDLr PCA) (PCSK9/LDLR complex; dose 150 μM): 46%

CCc1cc(-c2oncc2-c2ccc(OC)cc2)c(O)cc1OC [KRIBB3]
x-fold increase (LDL uptake in Hepg2 cells) (HepG2 cells; dose 1 μM): 1.3 x-fold | x-fold increase (hepatic LDL uptake) (HepG2 cells; dose 1 µM): 1.3 x-fold | x-fold increase (LDL uptake in Hepg2 cells) (HepG2 cells; dose 3 μM): 1.6 x-fold | x-fold increase (hepatic LDL uptake) (HepG2 cells; dose 3 µM): 1.6 x-fold

O=c1cc(N2CCNCC2)oc2c(-c3ccccc3)cccc12 [LY 303511]
x-fold increase (LDL uptake in Hepg2 cells) (HepG2 cells; dose 3 μM): 1.4 x-fold | x-fold increase (LDL uptake in Hepg2 cells) (HepG2 cells; dose 30 μM): 2.1 x-fold | x-fold increase (hepatic LDL uptake) (HepG2 cells; dose 30 µM): 2.1 x-fold | x-fold increase (hepatic LDL uptake) (HepG2 cells; dose 3 µM): 1.4 x-fold

Cc1c(OCC(F)(F)F)ccnc1C[S+]([O-])c1nc2ccccc2[nH]1 (stereo not shown) [Lanzoprazole]
effect on formation of PCSK9/LDLR complexes / PCA signal (in words) (PCSK9/LDLR complex): inhibit the formation of PCSK9/LDLR complexes | % Control (PCSK9/LDLr PCA) (PCSK9/LDLR complex; dose 100 μM): 53%

CS(=O)(=O)CCNCc1ccc(-c2ccc3ncnc(Nc4ccc(OCc5cccc(F)c5)c(Cl)c4)c3c2)o1 [Lapatinib]
effect on LDL uptake (in words) (HepG2 cells; HepG2, 10 μM): dramatic increase in LDL uptake | x-fold increase (LDL uptake in Hepg2 cells) (HepG2 cells; dose 10 μM): 1.8 x-fold | x-fold increase (hepatic LDL uptake) (HepG2 cells; dose 10 µM): 1.8 x-fold | x-fold increase (LDL uptake in Hepg2 cells) (HepG2 cells; dose 30 μM): 1.9 x-fold | x-fold increase (hepatic LDL uptake) (HepG2 cells; dose 30 µM): 1.9 x-fold

O=NN(CCCl)C(=O)NC1CCCCC1 [Lomustine]
% Control (PCSK9/LDLr PCA) (PCSK9/LDLR complex; dose 50 μM): 50% | % Control (PCSK9/LDLr PCA) (PCSK9/LDLR complex; dose 150 μM): 54%

CCOC(=O)N1CCC(=C2c3ccc(Cl)cc3CCc3cccnc32)CC1 [Loratidine]
% Control (PCSK9/LDLr PCA) (PCSK9/LDLR complex; dose 30 μM): 59%

Cc1cn(-c2cc(NC(=O)c3ccc(C)c(Nc4nccc(-c5cccnc5)n4)c3)cc(C(F)(F)F)c2)cn1 [Nilotinib]
effect on formation of PCSK9/LDLR complexes / PCA signal (in words) (PCSK9/LDLR complex): inhibit the formation of PCSK9/LDLR complexes | % Control (PCSK9/LDLr PCA) (PCSK9/LDLR complex; dose 3 μM): 48% | % Control (PCSK9/LDLr PCA) (PCSK9/LDLR complex; dose 10 μM): 65%

COc1cc2ncnc(Nc3cccc(Br)c3)c2cc1OC [PD-153035]
x-fold increase (LDL uptake in Hepg2 cells) (HepG2 cells; dose 0.2 μM): 1.3 x-fold | x-fold increase (hepatic LDL uptake) (HepG2 cells; dose 0.2 µM): 1.3 x-fold

CNc1cc2c(Nc3cccc(Br)c3)ncnc2cn1 [PD-158780]
x-fold increase (LDL uptake in Hepg2 cells) (HepG2 cells; dose 0.3 μM): 1.3 x-fold | x-fold increase (hepatic LDL uptake) (HepG2 cells; dose 0.3 µM): 1.3 x-fold

O=C1NC(=O)C(=Cc2ccc(-c3ccc(F)cc3O)o2)S1 [PI3K gamma/CKII inhibitor, (5-(4-Fluoro-2-hydroxyphenyl)furan-2-ylmethylene)thiazolidine-2,4-dione]
% Control (PCSK9/LDLr PCA) (PCSK9/LDLR complex; dose 3 μM): 57% | % Control (PCSK9/LDLr PCA) (PCSK9/LDLR complex; dose 10 μM): 47%

Oc1cccc(-c2nc(N3CCOCC3)c3sccc3n2)c1 [PI 3-K alpha Inhibitor IV, 3-(4-Morpholinothieno[3,2-d]pyrimidin-2-yl)phenol]
% Control (PCSK9/LDLr PCA) (PCSK9/LDLR complex; dose 30 μM): 46%

O=C1C(SCCO)=C(SCCO)C(=O)N1c1ccc(-c2ccccc2)cc1 [PM20]
% Control (PCSK9/LDLr PCA) (PCSK9/LDLR complex; dose 10 μM): 53%

COc1ccnc(C[S+]([O-])c2nc3ccc(OC(F)F)cc3[nH]2)c1OC (stereo not shown) [Pantoprazole]
% Control (PCSK9/LDLr PCA) (PCSK9/LDLR complex; dose 200 μM): 36%

CC[C@H](CO)Nc1nc(NCc2ccccc2)c2ncn(C(C)C)c2n1 [Roscovitine]
% Control (PCSK9/LDLr PCA) (PCSK9/LDLR complex; dose 40 μM): 54%

Oc1ccc(-c2nc(-c3ccc(F)cc3)c(-c3ccncc3)[nH]2)cc1 [SB 202190]
x-fold increase (LDL uptake in Hepg2 cells) (HepG2 cells; dose 1 μM): 2.7 x-fold | x-fold increase (hepatic LDL uptake) (HepG2 cells; dose 1 µM): 2.7 x-fold

C[S+]([O-])c1ccc(-c2nc(-c3ccc(F)cc3)c(-c3ccncc3)[nH]2)cc1 (stereo not shown) [SB 203580]
x-fold increase (LDL uptake in Hepg2 cells) (HepG2 cells; dose 3 μM): 3.0 x-fold | x-fold increase (hepatic LDL uptake) (HepG2 cells; dose 3 µM): 3.0 x-fold

O=C1NC(=O)C(c2ccccc2[N+](=O)[O-])=C1Nc1ccc(O)c(Cl)c1 [SB 415286]
x-fold increase (LDL uptake in Hepg2 cells) (HepG2 cells; dose 25 μM): 1.6 x-fold | x-fold increase (hepatic LDL uptake) (HepG2 cells; dose 25 µM): 1.6 x-fold

CN[C@H]1CC[C@@H](c2ccc(Cl)c(Cl)c2)c2ccccc21 [Sertraline]
% Control (PCSK9/LDLr PCA) (PCSK9/LDLR complex; dose 100 μM): 46%

CN[C@@H]1C[C@H]2O[C@@](C)([C@@H]1OC)n1c3ccccc3c3c4c(c5c6ccccc6n2c5c31)C(=O)NC4 [Staurosporine]
% Control (PCSK9/LDLr PCA) (PCSK9/LDLR complex; dose 1 μM): 34%

CC/C(=C(\c1ccccc1)c1ccc(OCCN(C)C)cc1)c1ccccc1 [Tamoxifen]
% Control (PCSK9/LDLr PCA) (PCSK9/LDLR complex; dose 30 μM): 53%

CC(C)(C)c1ccc(C(O)CCCN2CCC(C(O)(c3ccccc3)c3ccccc3)CC2)cc1 (stereo not shown) [Terfenadine]
% Control (PCSK9/LDLr PCA) (PCSK9/LDLR complex; dose 10 μM): 59%

COC[C@H]1OC(=O)c2coc3c2[C@@]1(C)C1=C(C3=O)[C@@H]2CCC(=O)[C@@]2(C)C[C@H]1OC(C)=O [Wortmannin]
% Control (PCSK9/LDLr PCA) (PCSK9/LDLR complex; dose 1.5 μM): 63%

CO[C@H]1C[C@@H]2CC[C@@H](C)[C@@](O)(O2)C(=O)C(=O)N2CCCC[C@H]2C(=O)O[C@H]([C@H](C)C[C@@H]2CC[C@H](n3cnnn3)[C@H](OC)C2)CC(=O)[C@H](C)/C=C(\C)[C@@H](O)[C@@H](OC)C(=O)[C@H](C)C[C@H](C)/C=C/C=C/C=C/1C [Zotarolimus]
% Control (PCSK9/LDLr PCA) (PCSK9/LDLR complex; dose 10 μM): 37%

B1: Oncostatin M (OSM): regulator of hepatic LDL uptake, purported target Gp130/OSMR/LIFR (protein, UniProt P13725 26-221, looked up)
Oncostatin-M: AAIGSCSKEYRVLLGQLQKQTDLMQDTSRLLDPYIRIQGLDVPKLREHCRERPGAFPSEETLRGLGRRGFLQTLNATLGCVLHRLADLEQRLPKAQDLERSGLNIEDLEKLQMARPNILGLRNNIYCMAQLLDNSDTAEPTKAGRGASQPPTPTPASDAFQRKLEGCRFLHGYHRFMHSVGRVFSKWGESPNRSRR
x-fold increase (hepatic LDL uptake) (HepG2 cells; dose 30 ng/ml): 4.2 x-fold

From patent US20100081632A1, “High-content and high throughput assays for identification of lipid-regulating pathways, and novel therapeutic agents for lipid disorders” (Odyssey Thera, Inc., priority 2008, published 2010)
